Drawing on article PMC4077652, “An Unstable Th Epitope of P. falciparum Fosters Central Memory T Cells and Anti-CS Antibody Responses” (PLoS ONE, 2014), this text covers IC50 and Kd for 22 compounds.

Where two headings read alike, the source gives them in different places. Where no end group is shown, it is not given here.

The target of assay [1] is T1, HLA-DRβ1*04:01 (DR4) (Homo sapiens, UniProt P01903+P01911, A100K/A169T/F76Y/I96L/K127E/L162R/M171V/N62H/P40V/Q125Y/R42H/S133A/S149N/S66Y/V115G/V209L/W38E). The assay can be described thus: biochemical. In kind it is binding.
Assay [2] deals with T1, HLA-DRβ1*04:01 (DR4). The assay is described as follows: biochemical. The assay is classed as binding. The source holds these as a separate data set.
For the next assay, the target named is HLA-DR4 (Homo sapiens, UniProt P01903+P01911, A100K/A169T/F76Y/I96L/K127E/L162R/M171V/N62H/P40V/Q125Y/R42H/S133A/S149N/S66Y/V115G/V209L/W38E). Particulars: binding to HLA-DR4, previously reported; read-out: IC50, competition binding assay; cited from earlier work.
Where [3] appears, read: IC50, competition binding assay.

Ac-QNSLSTEWSPCSVA-NH2 [T345A] came in with an IC50 against HLA-DRβ1*04:01 (DR4) [1] of 0.71 µM. At HLA-DRβ1*04:01 (DR4) [1] (IC50, binding to DRβ1*04:01), `CC(C)[C@H](NC(=O)[C@H](CC(N)=O)NC(=O)[C@@H]1CCCN1C(=O)[C@H](CC(N)=O)NC(=O)[C@H](C)NC(=O)[C@H](CC(N)=O)NC(=O)[C@@H]1CCCN1C(=O)[C@H](CC(=O)O)NC(=O)[C@@H](NC(=O)[C@H](CC(N)=O)NC(=O)[C@@H]1CCCN1C(=O)[C@H](CC(N)=O)NC(=O)[C@H](C)NC(=O)[C@H](CC(N)=O)NC(=O)[C@@H]1CCCN1C(=O)[C@@H](N)CC(=O)O)C(C)C)C(=O)O` [T1, reference compound] displayed an IC50 of about 18 µM. As for Ac-QNSLSTEWSPCS-NH2 [QN-332-343], the midpoint of inhibition against HLA-DRβ1*04:01 (DR4) [1], the IC50, lay at 5.58 µM. On the same count and under the same terms, in the case of Ac-QNSLSTEASPCSVT-NH2 [W339A] it was 1.42 µM; in that of Ac-LSTEWSPCS-NH2 [QN-335-343], 75.8 µM. Same read-out and setting: as for Ac-QASLSTEWSPCSVT-NH2 [N333A], the figure is 2.65 µM; as for Ac-QNSLSTEWSPCSAT-NH2 [V344A], 0.44 µM; as for Ac-QNSLSTEWSPASVT-NH2 [C342A], 0.73 µM.

QNSLSTEWSPCSVT [QNT-5]: the 50% inhibitory concentration (IC50) on HLA-DRβ1*04:01 (DR4) [1] (IC50 (quoted from Table 2)) was about 0.025 µM; at HLA-DRβ1*04:01 (DR4) [1] (setting [3]) it was about 1.7 µM; against HLA-DRβ1*04:01 (DR4) [1] (IC50 range values (95% C.I.)) it was 1.53 to 1.85 µM. For the same compound, the Kd at HLA-DRβ1*04:01 (DR4) [2] (apparent equilibrium binding affinity, […], DR-ELISA, read-out: Kd (nM) DM+) is 714.1 ± 3.9 nM; at HLA-DRβ1*04:01 (DR4) [2] (apparent equilibrium binding affinity, […], DR-ELISA, read-out: Kd (nM) DM-) it was 504 ± 86.2 nM. For the compound QNSYSTEWSPCSVT [QNT-Y], the IC50 is about 0.5 µM on HLA-DRβ1*04:01 (DR4) [1] (IC50 (quoted from Table 2)), about 0.13 µM on HLA-DRβ1*04:01 (DR4) [1] (setting [3]) and 0.124 to 0.14 µM on HLA-DRβ1*04:01 (DR4) [1] (IC50 range values (95% C.I.)). The Kd is 35.7 ± 20.5 nM at HLA-DRβ1*04:01 (DR4) [2] (Kd (nM) DM+) and 25.5 ± 10.7 nM on HLA-DRβ1*04:01 (DR4) [2] (Kd (nM) DM-).

With Ac-QNSLSTAWSPCSVT-NH2 [E338A], the IC50 on HLA-DRβ1*04:01 (DR4) [1] is 3.4 µM.

On HLA-DRβ1*04:01 (DR4) [1], Ac-QNSASTEWSPCSVT-NH2 [L335A] registered an IC50 of 68.4 µM.

As for SLSTEWSPCSV [T*-5], the IC50 on HLA-DR4 is 0.9 µM.

Regarding Ac-ANSLSTEWSPCSVT-NH2 [Q332A], half-maximal inhibition against HLA-DRβ1*04:01 (DR4) [1] (IC50) was put at 1.19 µM.

Compound Ac-STEWSPCS-NH2 [QN-336-343] gave an IC50 on HLA-DRβ1*04:01 (DR4) [1] of 6740 µM. Compound Ac-QNSLATEWSPCSVT-NH2 [S336A] came in with an IC50 against HLA-DRβ1*04:01 (DR4) [1] of 0.91 µM. The same measure, in the same setting: as for Ac-QNALSTEWSPCSVT-NH2 [S334A], the figure is 1.14 µM; as for Ac-SLSTEWSPCSVT-NH2 [QN-334-345], 2.82 µM; as for Ac-QNSLSTEWAPCSVT-NH2 [S340A], 24.6 µM. On the same count and under the same terms, as for Ac-QNSLSTEWSACSVT-NH2 [P341A], the figure is 7.75 µM; as for Ac-QNSLSAEWSPCSVT-NH2 [T337A], 1.3 µM. The same measure, in the same setting: as for Ac-QNSLSTEWSPCAVT-NH2 [S343A], the figure is 0.7 µM.

By IC50 is commonly meant the concentration at which inhibition is half-maximal.
